What was measured:
[1] = system: SMN protein; assay: SMN protein in brain and quadriceps muscle of SMNΔ7 mice (HTRF); type: in vivo, mouse
Description: (A) SMN protein in brains of C/C-allele mice. (B) SMN protein in brains of SMNΔ7 mice. (C) SMN protein in quadriceps muscle of C/C-allele mice. (D) SMN protein in quadriceps muscle of SMNΔ7 mice. C/C-allele mice and SMNΔ7 mice were treated with the compound of Example 20. One hour after the last dose, brains and quadriceps muscles were collected and levels of SMN protein were assessed by HTRF. Data represent means SEM of 5-6 animals per group and are expressed as fold change vs. vehicle-treated controls. *=p<0.05, **=p<0.01, ***=p<0.001 vs. untreated controls.
In vivo, the compound of Example 20 increases SMN protein in the brain and muscle in the severe SMNΔ7 model and the milder C/C-allele model, carrying human SMN2 transgenes. Adult C/C-allele mice were treated for 10 days with vehicle or the compound of Example 20 (1, 3 or 10 mg/kg PO, daily), and 3 days old (P3) SMNΔ7 mice were treated for 7 days with vehicle or the compound of Example 20 (0.1, 0.3, 1 or 3 mg/kg IP, daily). […] In SMNΔ7 mice, the SMN protein increase was only partial in both brain and muscle, reaching approximately 43% (brain) and 55% (muscle) of protein levels in heterozygous mice.

[2] = system: SMNΔ7 mice; assay: Neuromuscular connectivity and muscle atrophy in SMNΔ7 mice (immunohistochemistry); type: in vivo, mouse; conditions: 0.1, 0.3, 1 mg/kg IP once per day, P3 to P14
Description: SMNΔ7 mice were treated with the compound of Example 20 from P3 to P14, and neuromuscular connectivity and muscle atrophy were assessed by immunohistochemistry. (A) vGlut1-positive proprioceptive inputs in L3-5 spinal cord. (B) Ventral motor axons in L3-5 spinal cord. (C) NMJ innervation onto longissimus muscle. (D) EDL muscle cross-sectional area. Data represent means SEM of 4-5 mice per group. *=p<0.05; **=p<0.01; ***=p<0.001 vs. vehicle-treated SMNΔ7 mice.
Lastly, the compound of Example 20 improves neuromuscular connectivity in a severe SMA mouse model in vivo. SMNΔ7 mice were treated from P3 to P14 by IP application of vehicle or 0.1, 0.3, 1 mg/kg Example 20 once per day. At P14, 1 hour after the last dose spinal cord and muscle tissues were processed for histological assessment.

Structure (SMILES): Cc1cn2nc(-c3cc(=O)n4cc(N5CCNC6(CC6)C5)ccc4n3)cc(C)c2n1 [Example 20, 7-(4,7-diazaspiro[2.5]octan-7-yl)-2-(2,8-dimethylimidazo[1,2-b]pyridazin-6-yl)pyrido[1,2-a]pyrimidin-4-one]
- SMN protein in brain, of protein levels in heterozygous mice ([1]; SMNΔ7 mice): approximately 43%
- SMN protein in muscle, of protein levels in heterozygous mice ([1]; SMNΔ7 mice): ~55%
- maximum increase of SMN protein levels in brain and muscle tissue ([1]; neonatal SMNΔ7 mice, 1-3 mg/kg IP daily, 7 days from P3): 2-3 fold
- fiber size in extensor digitorum longus (EDL) muscles relative to vehicle-treated SMNΔ7 mice [2]: dose-dependently and significantly increased
- number of motor axons relative to vehicle-treated SMNΔ7 mice [2]: dose-dependently and significantly increased
- number of vGlut1 inputs relative to vehicle-treated SMNΔ7 mice [2]: dose-dependently and significantly increased
- percentage of fully innervated NMJs relative to vehicle-treated SMNΔ7 mice ([2]; longissimus muscle): dose-dependently and significantly increased

Source: patent US11938136B2, “Compositions for treating spinal muscular atrophy” (Hoffmann-La Roche Inc., priority 2015, dated 2024)
